Source: US20050239656A1, “Pyridine compounds or salts thereof and herbicides containing the same” (priority 2002, published 2005)

What was measured:
green foxtail = test: Test Example 2: soil surface treatment, upland pot test; assay type: in vivo, Setaria viridis L.
From the text: (§1) Upland field soil was put into a 1/170,000 ha pot, and seed of various plants (barnyardgrass, crabgrass, green foxtail, redroot pigweed, prickly sida, velvetleaf, rice, wheat, corn, soybean) were sown. On the 1st day after the sowing, a wettable powder or emulsifiable concentrate having the compound of the present invention formulated in accordance with a usual formulation method, was weighed so that the active ingredient would be a predetermined amount, and diluted with water in an amount of 1,500 L/ha. The herbicide thus adjusted was applied by a small size sprayer for soil surface treatment. On the 20th to 28th days after the application of the herbicide, the growth of the respective plants was visually observed, and the herbicidal effects were evaluated by the growth controlling degrees (%) ranging from 0 (equivalent to the non-treated plot) to 100 (complete kill), whereby the results shown in Table 4, were obtained.

prickly sida = test: as above; assay type: in vivo, Sida spinosa L.
From the text: as §1

corn = test: as above; assay type: in vivo, Zea mays L.
From the text: as §1

barnyardgrass [1] = test: Test Example 3: paddy pot test, application under submerged conditions; assay type: in vivo, Echinochloa crus-galli L.; conditions: submerged application at 0.5 leaf stage, visually observed 14 days after application, 0 = non-treated, 100 = complete kill
Outline: (§2)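 Paddy soil pots; seeds sown, lightly covered; flooded 0.5–1 cm in greenhouse; wapato tubers planted day 1–2; flood raised to 3–4 cm. Submerged pipette application at 0.5 leaf / primary leaf stage. Visual score day 14, 0–100%.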

japanese bulrush = test: as above; assay type: in vivo, Scirpus juncoides; conditions: submerged application at 0.5 leaf stage, visually observed 14 days after application, 0 = non-treated, 100 = complete kill
Outline: as §2

redroot pigweed = test: Test Example 2: soil surface treatment, upland pot test; assay type: in vivo, Amaranthus retroflexus L.
From the text: as §1

velvetleaf = test: as above; assay type: in vivo, Abutilon theophrasti MEDIC.
From the text: as §1

soybean = test: as above; assay type: in vivo, Glycine max Merr.
From the text: as §1

barnyardgrass [2] = test: as above; assay type: in vivo, Echinochloa crus-galli L.
From the text: as §1

japanese ribbon wapato = test: Test Example 3: paddy pot test, application under submerged conditions; assay type: in vivo, Sagittaria pygniaea; conditions: submerged application at primary leaf stage, visually observed 14 days after application, 0 = non-treated, 100 = complete kill
Outline: as §2

rice = test: Test Example 2: soil surface treatment, upland pot test; assay type: in vivo, Oryza sativa L.
From the text: as §1

crabgrass = test: as above; assay type: in vivo, Digitaria sanguinalis L.
From the text: as §1

rice (var. Nihonbare) = test: Test Example 3: paddy pot test, transplanted rice; assay type: in vivo, Oryza sativa L.; conditions: applied 4th day after transplantation, visually observed 21st day after application, 0 = non-treated, 100 = complete kill
Outline: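 Visual crop-injury rating (0 = as untreated, 100 = complete kill, %) taken 21 days post-application. Treatment: formulated compound, water-diluted, pipetted into 3–4 cm flood water at a preset active-ingredient dose, 4 days after transplanting 2-leaf Nihonbare rice 3 cm deep in puddled paddy soil.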

[3] = active ingredient 500 g/ha, observed 20th to 28th day
[4] = active ingredient 250 g/ha, observed 20th to 28th day
[5] = active ingredient 500 g/ha, observed day 21, 0 = non-treated, 100 = complete kill

| Compound | Growth controlling degree (%) Green foxtail (green foxtail; [3]) [%] | Growth controlling degree (%) Prickly sida (prickly sida; [3]) [%] | Growth controlling degree (%) Corn (corn; [3]) [%] | Growth controlling degree (%) Redroot pigweed (redroot pigweed; [3]) [%] | Growth controlling degree (%) Velvetleaf (velvetleaf; [3]) [%] | Growth controlling degree (%) Soyabean (soybean; [3]) [%] | Growth controlling degree (%) Barnyardgrass (barnyardgrass [2]; [3]) [%] | Growth controlling degree (%) Rice (rice; [3]) [%] | Growth controlling degree (%) Crabgrass (crabgrass; [3]) [%] | Growth controlling degree (%) Japanese bulrush (japanese bulrush; active ingredient 500 g/ha) [%] | Growth controlling degree (%) Japanese ribbon wapato (japanese ribbon wapato; active ingredient 500 g/ha) [%] | Growth controlling degree (%) Rice (rice (var. Nihonbare); active ingredient 500 g/ha) [%] | Growth controlling degree (%) Barnyardgrass (barnyardgrass [1]; active ingredient 250 g/ha) [%] | Growth controlling degree (%) Japanese bulrush (japanese bulrush; active ingredient 250 g/ha) [%] | Growth controlling degree (%) Japanese ribbon wapato (japanese ribbon wapato; active ingredient 250 g/ha) [%] | Growth controlling degree (%) Rice (rice (var. Nihonbare); active ingredient 250 g/ha) [%] | further results |
| --- | --- | --- | --- | --- | --- | --- | --- | --- | --- | --- | --- | --- | --- | --- | --- | --- | --- |
| Cc1ccc(CC(=O)N(C)C(c2cnccc2C(F)(F)F)C(C)C)c(F)c1 (racemic) [I-109] | 70 | 0 | 10 | 70 | 0 | 0 | 0 | 20 | 98 | – | – | – | – | – | – | – | Growth controlling degree (%) Barnyardgrass (barnyardgrass [1]; active ingredient 125 g/ha): 95%; Growth controlling degree (%) Japanese bulrush (japanese bulrush; active ingredient 125 g/ha): 90%; Growth controlling degree (%) Japanese ribbon wapato (japanese ribbon wapato; active ingredient 125 g/ha): 60%; Growth controlling degree (%) Rice (rice (var. Nihonbare); active ingredient 125 g/ha): 0% |
| CC(C)C(c1cnccc1C(F)(F)F)N(C)C(=O)Cc1c(F)ccc(F)c1F (stereo not shown) [Compound I-17] | 100 | 90 | 20 | 50 | 80 | 20 | 100 | 30 | 98 | 90 | 90 | 35 | – | – | – | – | – |
| CC(C)C(c1cnccc1C(F)(F)F)N(C)C(=O)Cc1ccccc1F (stereo not shown) [Compound I-25] | – | – | – | – | – | – | – | – | – | 98 | 100 | 30 | – | – | – | – | Growth controlling degree (%) Green foxtail (green foxtail; [4]): 100%; Growth controlling degree (%) Prickly sida (prickly sida; [4]): 100%; Growth controlling degree (%) Corn (corn; [4]): 20%; Growth controlling degree (%) Redroot pigweed (redroot pigweed; [4]): 100%; Growth controlling degree (%) Velvetleaf (velvetleaf; [4]): 95%; Growth controlling degree (%) Soyabean (soybean; [4]): 10%; Growth controlling degree (%) Barnyardgrass (barnyardgrass [2]; [4]): 98%; Growth controlling degree (%) Rice (rice; [4]): 20%; Growth controlling degree (%) Crabgrass (crabgrass; [4]): 100% |
| CCN(C(=O)Cc1ccc(C(F)(F)F)cc1)C(c1cnccc1C(F)(F)F)C(C)C (stereo not shown) [Compound I-79] | 100 | 100 | 10 | 80 | 80 | 10 | 100 | 10 | 100 | – | – | – | 100 | 70 | 40 | 20 | – |
| CC(C)C(c1cnccc1Cl)N(C)C(=O)Cc1ccccc1Cl (stereo not shown) [Compound I-81] | 70 | 10 | 0 | 70 | 0 | 0 | 98 | 0 | 90 | – | – | – | 98 | 95 | 0 | 10 | – |
| CC(C)C(c1cnccc1Cl)N(C)C(=O)COc1ccccc1 (stereo not shown) [Compound I-84] | 30 | 0 | 20 | 50 | 0 | 0 | 80 | 20 | 70 | – | – | – | 98 | 98 | 20 | 0 | – |
| CC(C)C(c1cnccc1C(F)(F)F)N(C)C(=O)C=Cc1cccnc1 (stereo not shown) [Compound I-184] | 40 | 80 | 0 | 30 | 50 | 20 | 30 | 20 | 98 | 90 | – | 10 | – | – | – | – | Growth controlling degree (%) Barnyardgrass (barnyardgrass [1]; active ingredient 500 g/ha): 70% |
| CC(C)C(c1cnccc1C(F)(F)F)N(C)C(=O)Cc1ccc(Cl)cc1 (stereo not shown) [I-23] | – | – | – | – | – | – | – | – | – | 90 | 85 | 30 | – | – | – | – | Growth controlling degree (%) Green foxtail (green foxtail; [4]): 98%; Growth controlling degree (%) Prickly sida (prickly sida; [4]): 98%; Growth controlling degree (%) Corn (corn; [4]): 10%; Growth controlling degree (%) Redroot pigweed (redroot pigweed; [4]): 85%; Growth controlling degree (%) Velvetleaf (velvetleaf; [4]): 60%; Growth controlling degree (%) Soyabean (soybean; [4]): 20%; Growth controlling degree (%) Barnyardgrass (barnyardgrass [2]; [4]): 95%; Growth controlling degree (%) Rice (rice; [4]): 0%; Growth controlling degree (%) Crabgrass (crabgrass; [4]): 98% |
| CC(C)C(c1cnccc1C(F)(F)F)N(C)C(=O)COc1cccc(C(F)(F)F)c1 (stereo not shown) [I-254] | – | – | – | – | – | – | – | – | – | – | – | – | 100 | 98 | – | 0 | Growth controlling degree (%) Green foxtail (green foxtail; [5]): 100%; Growth controlling degree (%) Prickly sida (prickly sida; [5]): 90%; Growth controlling degree (%) Corn (corn; [5]): 10%; Growth controlling degree (%) Redroot pigweed (redroot pigweed; [5]): 50%; Growth controlling degree (%) Velvetleaf (velvetleaf; [5]): 70%; Growth controlling degree (%) Soyabean (soybean; [5]): 10%; Growth controlling degree (%) Barnyardgrass (barnyardgrass [2]; [5]): 90%; Growth controlling degree (%) Rice (rice; [5]): 10%; Growth controlling degree (%) Crabgrass (crabgrass; [5]): 98% |
